The text below walks through data of patent US8080519B2, “Compositions and methods for enhanced pharmacological activity of compositions comprising peptide drug substances” (priority 1999, dated 2011).

One data set relates to splenocytes. The data set is described as follows: T cell proliferation in a skin immunization model (tritiated thymidine incorporation by splenocytes). To be noted: for Proliferation Index: splenocytes grown 4 days, 2 weeks after skin immunization; for proliferation index, overall comparison: comparison among the tested formulations. The class given is in vivo, mice. The procedure: Model: • 9 week old mice were immunized by application on bare skin of 100·g of Nef(66-97) peptide sequence and modifications thereof in addition to 5·g of choleric toxin and 100·g of oligodeoxynucleotide containing a CpG moiety (Immunology, 2002 104:1-14). 2 weeks later splenocytes were collected and grown over 4 days in the presence of 4 different concentrations of Nef(66-97) peptide (SEQ ID NO:2). The proliferation was measured by incorporating tritiated thymidine.

For the next data set, the system named is male Wistar rats. The data set is described as follows: hot plate test in rats (time to first licking of the posterior foot). The class given is in vivo, rat. The settings on record: for Time to first signal activity after oral administration: morphine, codeine, ibuprofen 10 mg/kg; for Time to first signal activity after oral administration / Time to first signal activity after i.v. administration: CY5M 2.5 mg/kg; for Time to first signal activity after i.v. administration: morphine 1 mg/kg. The procedure:
The time to first licking of the posterior foot by the rat is recorded after the rat has been place on a hot plate maintained at an elevated temperature (40° C.). This procedure provides accurate data on central analgesic activities induced by various candidate drugs. Under placebo conditions, the time to first licking of the posterior foot of the test animal varies between 30 and 50 seconds. […] In the experiments reported herein, a standard hot plate test was used to assess analgesia and the time to first licking of the test animal's posterior foot was used as the triggering event for measurement of elapsed time as indicative of the pharmacological effect of the administered drug species.
Seven groups of five male Wistar rats each were randomly assigned to the following treatments: placebo, 1 mg/kg morphine (i.v.), 10 mg/kg morphine (oral), 10 mg/kg codeine (oral), 10 mg/kg ibuprofen (oral), 2.5 mg/kg CY5M (i.v.), and 2.5 mg/kg CY5M (oral). The method was pre-validated with two oral and i.v. administrations of saline placebo and the results were similar to those obtained with placebo in the experiment reported below.

For data set [1] the following is noted: cited from earlier work.
For data set [2] the following is noted: cited from earlier work. The source holds these as a separate data set.

As to VGFPVTPQVPLRPMTYKAAVDLSHFLKEKGGL [Nef], the “Proliferation Index” value with splenocytes (Conc. of Nef peptide 0.5) stood at 10; in the data set on splenocytes (Conc. of Nef peptide 5) it was 13; in the data set with splenocytes (Conc. of Nef peptide 50), 10; with splenocytes (Conc. of Nef peptide .05), 03.

Consider Nef(66-97)-palmitoyl lysilamide [Lipo], for which the “Proliferation Index” value in the data set on splenocytes (Conc. of Nef peptide 0.5) is on record as 06; in the data set with splenocytes (Conc. of Nef peptide 5), 08; in the data set with splenocytes (Conc. of Nef peptide 50), 07; in the data set on splenocytes (Conc. of Nef peptide .05), 03.

On to `COc1ccc2c3c1O[C@H]1[C@@H](O)C=C[C@H]4[C@@H](C2)N(C)CC[C@@]341` [Codeine], for which the “Time to first signal activity after oral administration” value (“Time … after oral administration” for short) in the data set with male Wistar rats (oral, 0 h) came to 53.2 s; in the data set on male Wistar rats (oral, 1 h), 51.4 s; in the data set on male Wistar rats (oral, 2 h), 64.6 s; in the data set on male Wistar rats (oral, 4 h), 57.6 s; in the data set on male Wistar rats (oral, 6 h), 56.2 s; with male Wistar rats (oral, 24 h), 46.4 s.

In the case of `CC(C)Cc1ccc(C(C)C(=O)O)cc1` (stereo not drawn) [Ibuprofen], the “Time … after oral administration” value in the data set with male Wistar rats (oral, 0 h) worked out at 53.2 s; with male Wistar rats (oral, 1 h), 55.0 s; in the data set on male Wistar rats (oral, 2 h), 70.4 s; in the data set with male Wistar rats (oral, 4 h) it was 66.0 s; with male Wistar rats (oral, 6 h) it was 54.0 s; in the data set on male Wistar rats (oral, 24 h) it was 44.2 s.

Take “Cinnamoyl-Nef(66-97) G95ψ . . . (CH2—CH2) G96 [C0]”: the “Proliferation Index” value in the data set on splenocytes (Conc. of Nef peptide 0.5) is listed as 12; in the data set with splenocytes (Conc. of Nef peptide 5), 14; in the data set with splenocytes (Conc. of Nef peptide 50), 12; in the data set with splenocytes (Conc. of Nef peptide .05) it was 08.

As for “D-Gal(OPiv)4-hydroxyvaleryl-aminooctanoyl-Nef(66-97) • G95ψ . . . (CH2—CH2) G96 [Pivgal]”, the “Proliferation Index” value was determined as 05 with splenocytes (Conc. of Nef peptide 0.5), 08 in the data set with splenocytes (Conc. of Nef peptide 5), 10 in the data set with splenocytes (Conc. of Nef peptide 50) and 02 in the data set on splenocytes (Conc. of Nef peptide .05).

With `C[C@H](N[C@@H](CCc1ccccc1)C(=O)O)C(=O)N1CCC[C@H]1C(=O)O` [Enalaprilat], the oral absorption result in data set [1] is listed as “very poorly absorbed orally”.

Regarding `NCCCC[C@H](N[C@@H](CCc1ccccc1)C(=O)O)C(=O)N1CCC[C@H]1C(=O)O` [Lisinopril], the oral bioavailability in data set [1] is less than 25%. Also, in data set [1] (oral), the “Tmax (time to maximum serum levels in vivo)” value was “more than seven”. For the same compound, the solubility in water result in data set [2] is “relatively good solubility in water”.

For `CCOC(=O)[C@H](CCc1ccccc1)N[C@@H](C)C(=O)N1CCC[C@H]1C(=O)O` [Enalapril], the oral absorption result in data set [1] was “better absorbed orally”.

On to “Cinnamoyl-aminooctanoyl-Nef(66-97) G95ψ . . . (CH2—CH2) G96 [CC8]”, for which the “Proliferation Index” value in the data set on splenocytes (Conc. of Nef peptide 0.5) was found to be 22; with splenocytes (Conc. of Nef peptide 5), 20; with splenocytes (Conc. of Nef peptide 50), 16; in the data set on splenocytes (Conc. of Nef peptide .05), 10. Also, the “proliferation index, overall comparison” value with splenocytes is reported as “best proliferation index”.

Consider “Cinnamoyl-aminovaleryl-Nef(66-97) G95ψ . . . (CH2—CH2) G96 [CC5]”, for which the “Proliferation Index” value worked out at 22 in the data set on splenocytes (Conc. of Nef peptide 0.5), 21 with splenocytes (Conc. of Nef peptide 5), 20 with splenocytes (Conc. of Nef peptide 50) and 11 with splenocytes (Conc. of Nef peptide .05). In addition, in the data set with splenocytes, the “proliferation index, overall comparison” value is “best proliferation index”.

Consider cinnamoyl-Met-Enkephalin [CY5M], for which the “duration of analgesic effect” value in the data set with male Wistar rats (i.v. administration) and with male Wistar rats (oral administration) was not below 24 h each time. The “Time to first signal activity after i.v. administration” value was 51.0 s with male Wistar rats (i.v., 0 h); 57.0 s in the data set on male Wistar rats (i.v., 1 h); 114.0 s in the data set with male Wistar rats (i.v., 2 h); 88.2 s with male Wistar rats (i.v., 4 h); 106.0 s in the data set with male Wistar rats (i.v., 6 h); 86.6 s with male Wistar rats (i.v., 24 h). The “effectiveness relative to morphine by the same route (area under the dose response curve)” value in the data set on male Wistar rats (i.v., CY5M 2.5 mg/kg vs morphine 1 mg/kg) is listed as “at least 8 times”; in the data set with male Wistar rats (oral, CY5M 2.5 mg/kg vs morphine 10 mg/kg) it was “at least 8 times”. Also, the “Time … after oral administration” value in the data set with male Wistar rats (oral, 0 h) was 53.6 s; with male Wistar rats (oral, 1 h), 46.2 s; with male Wistar rats (oral, 2 h), 78.8 s; with male Wistar rats (oral, 4 h), 78.2 s; in the data set on male Wistar rats (oral, 6 h), 82.6 s; in the data set with male Wistar rats (oral, 24 h), 98.8 s.

With `CN1CC[C@]23c4c5ccc(O)c4O[C@H]2[C@@H](O)C=C[C@H]3[C@H]1C5` [Morphine], the “duration of analgesic effect” value in the data set with male Wistar rats (i.v. administration) and in the data set with male Wistar rats (oral administration) was “six” each time. Also, the “Time to first signal activity after i.v. administration” value was found to be 51.8 s in the data set with male Wistar rats (i.v., 0 h); 118.8 s in the data set with male Wistar rats (i.v., 1 h); 86.6 s with male Wistar rats (i.v., 2 h); 63.2 s with male Wistar rats (i.v., 4 h); 45.6 s with male Wistar rats (i.v., 6 h); 40.0 s in the data set with male Wistar rats (i.v., 24 h). For the same compound, the “Time … after oral administration” value in the data set with male Wistar rats (oral, 0 h) worked out at 51.8 s; in the data set on male Wistar rats (oral, 1 h), 84.8 s; in the data set on male Wistar rats (oral, 2 h), 81.2 s; in the data set on male Wistar rats (oral, 4 h) it was 58.8 s; in the data set on male Wistar rats (oral, 6 h), 48.8 s; in the data set with male Wistar rats (oral, 24 h), 42.0 s.

Tyr-Gly-Gly-Phe-Met [Met-Enkephalin]: the “duration of transient effect after i.v. administration” value in the data set on male Wistar rats (preliminary study, i.v.) is “about 15 minutes”. Also, in the data set on male Wistar rats (preliminary study, oral, 5 mg/kg dose), the “analgesic effect after oral administration” value was “unable to demonstrate any effect”.
